The subject of one data set is influenza virus. Nature of the data set: microbe, parasite or virus in culture. It is filed as cell-based, influenza virus Type A/USSR 90 (HeLa cell cultures).
Data set [1] has as its system human peripheral blood lymphocytes. Briefly: Mitogen (PHA) induced human lymphocyte proliferation. It is filed as cell-based. As to conditions: plus = immunostimulating, minus = immunoinhibiting, 0 = neither.
A further data set concerns L-1210 leukemic cells. Nature of the data set: Anti-leukemic activity, inhibition of L-1210 growth. It is filed as cell-based, mouse. How it is done:
Anti-Leukemic Activity (Inhibition of L-1210 Growth)
Leukemic cells isolated from mice bearing the L-1210 tumor are cultured in vitro and their growth can be measured by counting the number of cells in the culture over a period of time. The incorporation of a test substance into the media will prevent the growth of the leukemic cells, an indication of an effective anti-leukemic agent.
I50 (concentration of drug inhibiting growth of L-1210) by % for the tested compounds was as follows:
To Measure Inhibition of Leukemic Cell (L-1210) Growth
Check to see that there is adequate cell growth in the stock cultures. Use cells 48-72 hours after transfers are done.
Weigh out the drugs at 50 times the desired final concentration and made serial dilutions.
Make up the final medium using 500 mls McCoy's 5A medium, 15% fetal calf serum, 5 mls penicillin-streptomycin solution, and 5 mls antibiotic-antimycotic solution and let it stand at room temperature.
Using sterile technique, add 0.1 ml of the drug dilutions to each tube.
Add an appropriate quantity of cells to the prepared medium. After mixing, remove a 0.5 ml sample, place it in a vial containing […] of saline, and count it on the Coulter Counter. Multiply the count by 40 to compensate for the 40 fold dilution (0.5 ml into […] and record the inoculum.
Add 5 mls of cell suspension to each tube. Swirl the bottle every 4 tubes to insure a more uniform distribution of cells.
Tighten the caps and place in the CO2 incubator at 36°-38° for 96 hours.
After 96 hours remove the tubes from the incubator and count the contents of each on the Coulter Counter. Multiply all counts by 40 and average the four counts for each drug dilution. If the count is less than the inoculum, record 100% inhibition. If the count is greater than the average of the eight control counts, record 0% inhibition. For all other counts use the following formula: [formula] 100%-% servival=inhibition of growth due to treatment.

Data set [2] has as its system spleen cells. Nature of the data set: In vivo treatment of mice: effect on in vitro Con A stimulation of spleen cell proliferation. More on the design: species or system male Balb/C mice. How it is done: The purpose of this study was to determine the effects of in vivo treatment of mice with the compounds NPT 15392 and 15410 on the subsequent activity of spleen cells isolated from these animals and evaluated in vitro for their proliferative response to the mitogen, Concanavalin A (Con A).
Nine male Balb/C mice, 8-9 weeks old, weighing 18-20 gms were divided into three groups. One group was treated twice daily (for 1 day), in the morning and afternoon, with an oral dose of NPT 15392 at 10 mg/kg. The second group was similarly treated with NPT 15410 at 20 mg/kg. A third group, dosed with saline served as a placebo control.
The following day, each group was sacrificed and the spleens removed and pooled. The spleens were minced and the cells washed in RPMI-1640 medium (Grand Island Biologicals) supplemental with 2 mm glutamine and antibiotics. The cell concentration of each preparation was determined by a Coulter counter and adjusted to 5×10^6 cells/ml with RPMI medium.
(§1) Microtiter assays were carried out in 0.2 ml incubations, containing 5×10^5 cells and Con A or Con A and compounds at the indicated concentrations. All assays were performed with 6 replicates and compared with a blank assay containing only cells. The assay plates were incubated at 37° in 5% CO2 for 4 days. During the final 18-20 hours of incubation, 0.5 ml of ^3 HTdR (10 μCi/ml, 6 Ci /m mole) were added to each culture. The cultures were harvested with a multiple automatic sample harvester (MASH) unit and the incorporated ^3 HTdR determined with a Beckman LS 8000 liquid scintillation counter, as a measure of cell proliferation. The results are tabulated as the ratio of the activity in the Con A or Con A and compound treated cultures to the blank cultures.

In data set [3] the test system is spleen cells. Briefly: In vitro treatment of Con A stimulated mouse spleen cells. The conditions noted are these: for ability to augment Con A stimulation (in words): compound 1 μg/ml, Con A 5 μg/ml. The data set is classed as cell-based. How it is done: The following day, each group was sacrificed and the spleens removed and pooled. […] The cell concentration of each preparation was determined by a Coulter counter and adjusted to 5×10^6 cells/ml with RPMI medium.
as §1, with “proliferation.” for “proliferation. The results are tabulated as the ratio of the activity in the Con A or Con A and compound treated cultures to the blank cultures.”

The test system of the next data set is immune response. Briefly: Immunomodulating activity (overall). It is filed as cell-based. The source says:
The following three assay procedures are used to evaluate the ability of the test substances to modulate the activity of several classes of cells in the immune system. In these systems it is possible to identify both immunopotentiating activity (evidence by an enhancement of the parameter examined) as well as immunosuppressant activity (evidenced by an inhibition of the parameter examined).
Table 4 above presents the results of an evaluation of a number of these subject compounds as potentiators of the immune response. Three different test systems were used. The first involves a measure of the ability of the test compound to enhance the ability of mouse lymphocytes to proliferate in response to a plant mitogen (Con A). The second involves measuring the ability of the test compounds to enhance human lymphocyte proliferation in response to a second plant mitogen (PHA). The third system measures the ability of these test substances to enhance macrophage proliferation in response to a natural lymphokine (MMF, Macrophage Mitogenic Factor).

Where [4] appears, read: Con A 5 μg/ml (suboptimal), oral 15392 10 mg/kg, 15410 20 mg/kg.
[5] abbreviates: salt compared with parent compound.

Structures are written as SMILES. Values after ≈ are worked out from the molar mass of the structure shown.

Regarding `CCCCCC[C@H]([C@H](C)O)n1cnc2c(=O)[nH]cnc21` (relative stereo) [NPT 15392, ERYTHRO-9-(2-HYDROXY-3-NONYL)HYPOXANTHINE], the “% Inhibition of Hemadsorption Foci” value in the data set on influenza virus (Test Compound Conc. <10 μg/ml) came out at 86%. The inhibition at 100 µg/mL in the data set with influenza virus (unidentified influenza virus, read-out: % Inhibition of Hemadsorption Foci, Test Compound Conc. >100 μg/ml) was 100%. Moreover, the “Maximum Percent Change, Mitogen Induced (PHA) Human Lymph. Prolif.” value in data set [1] (1.0-10 (unit not given)) is listed as 20%; in data set [1] (10-100 (unit not given)), -50%; in data set [1] (.01-1.0 (unit not given)), 11-15%. Moreover, the IC50 with L-1210 leukemic cells (Mus musculus, L1210, tissue culture, read-out: 50% inhibition of L-1210 cells) is 28 µg/mL (≈ 101 µM). Besides, the “response of spleen cells to Con A after in vivo treatment (in words)” value in the data set on spleen cells [2] (setting [4]) is recorded as “increases the subsequent response of the spleen cells”; in the data set on spleen cells [2] (Con A 10 μg/ml (more optimal)), “No significant differences”. Further, the fold induction at 1 µg/mL in the data set on spleen cells [3] (Mus musculus, 96 h, Con A 5 μg/l as printed, compound 1 μg/ml in vitro, read-out: stimulation over Con A alone) is 2.8. Besides, the “ability to augment Con A stimulation (in words)” value in the data set with spleen cells [3] was “marked ability to augment the Con A stimulation”. Also, the “potentiation of the immune response (in words)” value in the data set on immune response is “potentiation of the immune response has been observed”.

For the molecule `CCCCCC[C@H]([C@H](C)O)n1cnc2c(=O)[nH]cnc21` (relative stereo) [NPT 15410], the “% Inhibition of Hemadsorption Foci” value is reported as 58% with influenza virus (Test Compound Conc. <10 μg/ml) and 96% in the data set with influenza virus (Test Compound Conc. >100 μg/ml). For the same molecule, the “Maximum Percent Change, Mitogen Induced (PHA) Human Lymph. Prolif.” value in data set [1] (1.0-10 (unit not given)) is listed as 60%. For the same molecule, the “I50 (concentration of drug inhibiting growth of L-1210)” value in the data set with L-1210 leukemic cells (96 hours) was 54 micrograms/ml. Also, the “Potentiation Anti-Leukemia by DIP.PAcBA salt” value in the data set with L-1210 leukemic cells (setting [5]) is on record as “Yes”. In addition, in the data set with L-1210 leukemic cells (tissue culture), the “50% inhibition of L-1210 cells” value stood at 54 µg/mL. Further, the “response of spleen cells to Con A after in vivo treatment (in words)” value is “increases the subsequent response of the spleen cells” in the data set on spleen cells [2] (setting [4]) and “No significant differences” with spleen cells [2] (Con A 10 μg/ml (more optimal)). Besides, the “stimulation over Con A alone” value in the data set with spleen cells [3] (Con A 5 μg/l as printed, compound 1 μg/ml in vitro, 5760 min) was found to be 3.3 fold. In the data set on spleen cells [3], the “ability to augment Con A stimulation (in words)” value was “marked ability to augment the Con A stimulation”. Besides, the “potentiation of the immune response (in words)” value in the data set with immune response is “potentiation of the immune response has been observed”. In the data set with immune response (setting [5]), the “Potentiation of immunopotentiation by DIP.PAcBA salt” value was “Yes”.
